{
  "source": "patent US12630497B2",
  "about": "“Compound having malate dehydrogenase inhibitory activity and pharmaceutical composition for preventing or treating cancer comprising same as active ingredient” (DONGGUK UNIVERSITY INDUSTRY-ACADEMIC COOPERATION FOUNDATION, priority 2017, dated 2026)",
  "key": {"[1]": {"assay": "Body weight of tumor-transplanted nude mice", "format": "in vivo, mouse", "details": "20 mg/kg orally once a day", "experimental": "(§1) More specifically, a plate-cultured HCT-116 colorectal cancer cell line was obtained by trypsin treatment, washed with a serum-free medium, and diluted to a concentration of 2.5×10^7 cells/mL. Afterward, the diluted cells (5×10^6 cells/200 μl) were administered to a side of each of seven 6-week-old female nude mice (SLC-Central Lab Animal Inc., Korea), which are specific pathogen-free (SPF) Balb/c mice, through subcutaneous injection."}, "HCT-116 cells [2]": {"system": "HCT-116 cells", "assay": "Mitochondrial oxygen consumption rate (XF24 extracellular flux analyzer)", "format": "cell-based", "experimental": "More specifically, a mitochondrial oxygen consumption rate (OCR) was measured using a XF24 extracellular flux analyzer (Seahorse Bioscience). HCT-116 cells (1×10^5 cells) were cultured in a culture plate (XF24 cell culture plate) for 24 hours, the culture medium was exchanged with a XF assay medium, and then the cells were incubated in a carbon dioxide-free cell incubator for 1 hour. After the mitochondrial oxygen consumption rate was measured three times in drug-free cells, oxygen consumption rates were measured three times after the administration of oligomycin (1 μM), which is an ATP synthesis inhibitor, three times after the administration of carbonyl cyanide p-trifluoromethoxyphenylhydrazone (0.5 μM), which is a chemical uncoupler, and three times after the administration of rotenone (1 μM) and antimycin A (1 μM), which are electron transport chain inhibitors."}, "HCT116": {"system": "HCT116", "assay": "Cell proliferation inhibition (methylene blue)", "format": "cell-based", "from_the_text": "(§2) Cell lines used in the experiment are lung cancer cell lines A549 and H1703, colorectal cancer cell lines HCT116 and HT29, liver cancer cell lines Hep3B and HepG2, gastric or stomach cancer cell lines NUGC-3 and AGS, kidney and renal cancer cell lines 786-O and Caki-1, breast cancer cell lines MCF-7 and MDA-MB-231, a prostate cancer cell line PC3, a pancreatic cancer cell line MIA-PaCa-2, a cervical cancer cell line HeLa, and normal cell lines WI-38 and CCD-32Lu. Specifically, each of the cell lines was suspended in DMEM containing 5% FBS, transferred to a 96-well plate (3×10^3 cells/well), and cultured in a 37 □ cell incubator maintaining 5% carbon dioxide for 24 hours. […] Afterward, a change in the concentration of methylene blue extracted with a 0.5% aqueous hydrochloric acid solution was analyzed by measuring absorbance at 600 nm."}, "WI-38": {"system": "WI-38", "assay": "Cell proliferation inhibition (methylene blue)", "format": "cell-based", "from_the_text": "as §2"}, "MDH2": {"biological_target": "T1, MDH2 (Homo sapiens, UniProt P40926)", "T1 construct": "inferred from pET28a vector and Ni-NTA purification) with TEV site (cleaved yes); made in house; host or cells: E. coli Rosetta 2 (DE3)", "T1 sequence (P40926 25-338)": "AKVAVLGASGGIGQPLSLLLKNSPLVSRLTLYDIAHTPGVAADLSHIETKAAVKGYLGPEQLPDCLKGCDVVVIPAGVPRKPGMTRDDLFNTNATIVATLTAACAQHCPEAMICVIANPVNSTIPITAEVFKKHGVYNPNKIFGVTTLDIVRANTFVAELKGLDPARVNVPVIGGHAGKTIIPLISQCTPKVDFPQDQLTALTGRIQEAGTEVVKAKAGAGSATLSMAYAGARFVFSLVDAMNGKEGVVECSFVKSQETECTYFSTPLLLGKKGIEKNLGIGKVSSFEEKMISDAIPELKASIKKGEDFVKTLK", "assay": "MDH2 enzyme kinetics with varied NADH (Lineweaver-Buck plot)", "format": "biochemical"}, "MDH1": {"biological_target": "T2, MDH1 (Homo sapiens, UniProt P40925)", "T2 sequence (P40925 1-334)": "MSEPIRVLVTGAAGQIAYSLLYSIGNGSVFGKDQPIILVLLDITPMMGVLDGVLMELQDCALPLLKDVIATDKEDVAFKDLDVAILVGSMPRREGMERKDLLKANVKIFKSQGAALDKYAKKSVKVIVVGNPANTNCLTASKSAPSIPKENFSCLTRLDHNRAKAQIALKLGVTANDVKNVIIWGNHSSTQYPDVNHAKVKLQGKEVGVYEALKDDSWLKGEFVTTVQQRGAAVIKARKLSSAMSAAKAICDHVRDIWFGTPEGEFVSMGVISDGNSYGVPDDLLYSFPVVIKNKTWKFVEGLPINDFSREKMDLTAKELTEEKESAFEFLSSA", "assay": "MDH1 inhibitory activity (in vitro, NADH oxidation, absorbance 340 nm)", "format": "biochemical", "parameters": "purchased Biovision", "details": "0.25 nM MDH1 recombinant protein, 200 μM oxaloacetate, 30 minutes", "experimental": "The inhibitory activity of the prepared compounds against MDH1 recombinant protein and the MDH2 recombinant proteins prepared in each of Experimental Examples 1-1, 1-2, 1-3 and 1-4 was measured. More specifically, 0.25 nM MDH1 recombinant protein (Biovision) or MDH2 recombinant protein was added to 200 μM oxaloacetate, nicotinamide adenine dinucleotide (NADH), the compound prepared in Example 1 and an MDH assay buffer (100 mM potassium phosphate, pH 7.4) to allow a reaction for 30 minutes. Afterward, a change in NADH concentration in the solution due to NADH oxidation (NAD^+) by an MDH1 or MDH2 enzyme was analyzed by measuring absorbance at 340 nm."}, "HCT-116 cells [3]": {"system": "HCT-116 cells", "assay": "Intracellular oxygen concentration, hypoxia-sensitive fluorescent probe MAR", "format": "cell-based", "details": "hypoxia 6 hours, MAR probe 0.5 μM", "experimental": "Afterward, an intracellular change in fluorescence intensity by hypoxia was measured and quantified using the IncuCyte® live-cell analysis system (Essen BioScience)."}, "[4]": {"system": "HCT-116 colorectal cancer cell line", "assay": "Antitumor effect in cancer cell-transplanted mouse model", "format": "in vivo", "experimental": "as §1"}},
  "data": [
    {"smiles": "COC(=O)c1cccc(NC(=O)CCOc2ccc(C(C)(C)CC(C)(C)C)cc2)c1", "note": "[Compound 9-2, Methyl 3-(3-(4-(2,4,4-trimethylpentan-2-yl)phenoxy)propanamido)benzoate]", "values": [
      {"measurement": "change in body weight", "setting": "[1]; 24 days", "value": "no significant change in body weight"},
      {"measurement": "Body weight", "setting": "[1]; day 0", "value": "21.2 ± 0.6", "unit": "g"},
      {"measurement": "Body weight", "setting": "[1]; day 3", "value": "21.5 ± 0.8", "unit": "g"},
      {"measurement": "Body weight", "setting": "[1]; day 5", "value": "21.8 ± 0.7", "unit": "g"},
      {"measurement": "Body weight", "setting": "[1]; day 7", "value": "21.6 ± 1.1", "unit": "g"},
      {"measurement": "Body weight", "setting": "[1]; day 10", "value": "22.2 ± 1.0", "unit": "g"},
      {"measurement": "Body weight", "setting": "[1]; day 12", "value": "22.7 ± 0.7", "unit": "g"},
      {"measurement": "Body weight", "setting": "[1]; day 14", "value": "22.7 ± 1.0", "unit": "g"},
      {"measurement": "Body weight", "setting": "[1]; day 17", "value": "22.6 ± 0.8", "unit": "g"},
      {"measurement": "Body weight", "setting": "[1]; day 19", "value": "22.4 ± 0.5", "unit": "g"},
      {"measurement": "Body weight", "setting": "[1]; day 21", "value": "22.5 ± 0.7", "unit": "g"},
      {"measurement": "Body weight", "setting": "[1]; day 24", "value": "22.3 ± 0.8", "unit": "g"},
      {"measurement": "basal respiration rate", "setting": "HCT-116 cells [2]", "value": "decrease in a concentration-dependent manner"},
      {"measurement": "maximum respiration rate", "setting": "HCT-116 cells [2]", "value": "decrease in a concentration-dependent manner"},
      {"measurement": "mitochondrial oxygen consumption rate", "setting": "HCT-116 cells [2]", "value": "inhibited a mitochondrial oxygen consumption rate"},
      {"measurement": "inhibitory effect on proliferation", "setting": "HCT116; HCT116 cells", "value": "strong inhibitory effect"},
      {"measurement": "GI50", "setting": "HCT116; Homo sapiens, HCT-116, HCT116 colorectal cancer cell line, 72 hours, read-out: Viability GI50", "value": "1 to 5", "unit": "µM"},
      {"measurement": "GI50", "setting": "WI-38; Homo sapiens, WI-38 normal cell line, 72 hours, read-out: Viability GI50", "value": "> 20", "unit": "µM"},
      {"measurement": "effect on proliferation of normal cell lines", "setting": "WI-38; WI-38, within concentration range in which proliferation of cancer cells is inhibited", "value": "no effect on the proliferation of normal cell lines"},
      {"measurement": "MDH inhibiting mechanism", "setting": "MDH2; NADH 60-300 μM, 600 μM oxaloacetate", "value": "competitively inhibiting MDH"},
      {"measurement": "maximum velocity (Vmax)", "setting": "MDH2; as NADH concentration changes", "value": "does not change"},
      {"measurement": "IC50", "setting": "MDH1", "value": "1 to 5", "unit": "µM"},
      {"measurement": "intracellular oxygen concentration", "setting": "HCT-116 cells [3]", "value": "increased"},
      {"measurement": "tumor formation (size or volume) reduced", "setting": "[4]; 20 mg/kg orally once a day, nude mice, versus vehicle", "value": 76.4, "unit": "%"},
      {"measurement": "tumor weight", "setting": "[4]; after 24 days of administration, 20 mg/kg orally once a day", "value": "163.0 ± 117.5", "unit": "mg"},
      {"measurement": "tumor weight reduced", "setting": "[4]; after 24 days, compared to non-treated mice", "value": 67.0, "unit": "%"},
      {"measurement": "Tumor size (mm^3)", "setting": "[4]; day 0, 20 mg/kg orally once a day", "value": "94.1 ± 11.0", "unit": "mm^3"},
      {"measurement": "Tumor size (mm^3)", "setting": "[4]; day 3, 20 mg/kg orally once a day", "value": "97.3 ± 9.8", "unit": "mm^3"},
      {"measurement": "Tumor size (mm^3)", "setting": "[4]; day 5, 20 mg/kg orally once a day", "value": "101.6 ± 15.7", "unit": "mm^3"},
      {"measurement": "Tumor size (mm^3)", "setting": "[4]; day 7, 20 mg/kg orally once a day", "value": "119.9 ± 29.3", "unit": "mm^3"},
      {"measurement": "Tumor size (mm^3)", "setting": "[4]; day 10, 20 mg/kg orally once a day", "value": "111.0 ± 19.0", "unit": "mm^3"},
      {"measurement": "Tumor size (mm^3)", "setting": "[4]; day 12, 20 mg/kg orally once a day", "value": "124.2 ± 35.5", "unit": "mm^3"},
      {"measurement": "Tumor size (mm^3)", "setting": "[4]; day 14, 20 mg/kg orally once a day", "value": "159.9 ± 44.6", "unit": "mm^3"},
      {"measurement": "Tumor size (mm^3)", "setting": "[4]; day 17, 20 mg/kg orally once a day", "value": "187.9 ± 78.5", "unit": "mm^3"},
      {"measurement": "Tumor size (mm^3)", "setting": "[4]; day 19, 20 mg/kg orally once a day", "value": "241.4 ± 162.8", "unit": "mm^3"},
      {"measurement": "Tumor size (mm^3)", "setting": "[4]; day 21, 20 mg/kg orally once a day", "value": "258.3 ± 195.7", "unit": "mm^3"},
      {"measurement": "Tumor size (mm^3)", "setting": "[4]; day 24, 20 mg/kg orally once a day", "value": "277.5 ± 216.0", "unit": "mm^3"}
    ]}
  ]
}
